We go through 16 molecules from ChEMBL document CHEMBL4888484, “Replenishing the malaria drug discovery pipeline: Screening and hit evaluation of the MMV Hit Generation Library 1 (HGL1) against asexual blood stage Plasmodium falciparum ,using a nano luciferase reporter read-out” (2022).

The structures appear in SMILES notation.

The nature of data set [1]: Re-testing in dose-response curve in HepG2 cytotoxicity assay, at 72h. It counts as toxicity, cell-based. Further details: timepoint 72 hour. The following applies: human, HepG2 cells.
The test system of data set [2] is Plasmodium falciparum. The data set is described as follows: Hit confirmation in dose-response curve in NF54 nanoGlo assay, at 12h. It counts as functional, organism-based, Erythrocyte. Further details: timepoint 12 hour. The following applies: Plasmodium falciparum, NF54, Erythrocyte, 12 h.
In data set [3] the test system is Plasmodium falciparum. Briefly: Hit confirmation in dose-response curve in Dd2 pLDH assay, at 72h. It counts as functional, organism-based. On the set-up: timepoint 72 hour. Particulars: Dd2, Erythrocyte.
For data set [4], the system named is Plasmodium falciparum. The data set is described as follows: Hit confirmation in dose-response curve in NF54 pLDH assay, at 72h. The following applies: NF54, Erythrocyte. On the set-up: timepoint 72 hour. It is filed as functional, organism-based.
Data set [5] concerns Plasmodium falciparum. Briefly: Hit confirmation in dose-response curve in NF54 nanoGlo assay, at 72h. It counts as functional, organism-based, Erythrocyte. Further details: timepoint 72 hour. Particulars: Plasmodium falciparum, NF54, Erythrocyte, 72 h.
The test system of data set [6] is Plasmodium falciparum. The data set is described as follows: Re-testing in dose-response curve in 3D7 pLDH assay, at 72h. It is filed as functional, organism-based. Further details: timepoint 72 hour. The following applies: 3D7, Erythrocyte.
Data set [7] in a line: Hit confirmation in dose-response curve in HepG2 cytotoxicity assay, at 72h. It is filed as toxicity, cell-based. Further details: timepoint 72 hour. The following applies: human, HepG2 cells.

Broadly, the IC50 is the concentration that inhibits the measured activity by half. Read a low IC50 as higher potency. Take `O=C(Nc1cc(N2CCCS2(=O)=O)ccc1O)c1cccc(Oc2cccc(C(F)(F)F)c2)c1`: the results for the half-maximal inhibitory concentration (IC50) at 72 h in data set [1] and in data set [7] were 20800 nM and greater than 10000 nM, respectively. For the same molecule, the IC50 in the data set with Plasmodium falciparum [2] turned out to be 501 nM; in the data set with Plasmodium falciparum [3], 537 nM; with Plasmodium falciparum [4], 1100 nM; with Plasmodium falciparum [5], 355 nM; in the data set with Plasmodium falciparum [6], 416 nM.
`C[C@H]1CCN(c2nc(-c3ccccn3)nc3c2CCC3)C1`: the IC50 at 72 h in data set [1] was 4750 nM; in data set [7] it was greater than 10000 nM. Besides, the IC50 came out at 2040 nM with Plasmodium falciparum [2]; 1230 nM in the data set on Plasmodium falciparum [3]; 1290 nM with Plasmodium falciparum [4]; 692 nM in the data set on Plasmodium falciparum [5]; 2150 nM in the data set with Plasmodium falciparum [6].
For `CC(Oc1ccc2c(c1)C(c1ccccc1)N(Cc1ccccc1F)CC2)C(=O)NC1CC1` (centres undefined), the IC50 is greater than 10000 nM in the data set with Plasmodium falciparum [2], 3470 nM in the data set on Plasmodium falciparum [3], 7590 nM in the data set on Plasmodium falciparum [4] and 2690 nM in the data set with Plasmodium falciparum [5]. Also, the 50% inhibitory concentration (IC50) at 72 h in data set [7] is greater than 10000 nM.
In the case of `CCc1cccc(NC(=O)N2CCN(C3=CC4=NC[C@H](C)N4C=N3)CC2)c1`, the IC50 in the data set with Plasmodium falciparum [2] was greater than 10000 nM; with Plasmodium falciparum [3], 2950 nM; with Plasmodium falciparum [4], 1120 nM; with Plasmodium falciparum [5], 3090 nM. The molecule further yielded an IC50 at 72 h in data set [7] greater than 10000 nM.
On to `CCOC1CC(NC2CC(c3ccc(F)cc3)C2)C12CCC2` (centres undefined), for which the IC50 in the data set on Plasmodium falciparum [2] stood at 6310 nM; in the data set on Plasmodium falciparum [3], 2630 nM; with Plasmodium falciparum [4], 3630 nM; in the data set with Plasmodium falciparum [5], 5010 nM. Besides, the IC50 at 72 h in data set [7] was greater than 10000 nM.
Turning to `CC[N+](CC)(CC(=O)OC1CC2CCC1(C)C2(C)C)CC(=O)OC1CC2CCC1(C)C2(C)C` (centres undefined), the IC50 in the data set with Plasmodium falciparum [2] turned out to be 4680 nM; in the data set on Plasmodium falciparum [3] it was 2190 nM; with Plasmodium falciparum [4], 2820 nM; with Plasmodium falciparum [5], 1820 nM. The molecule further had an IC50 at 72 h in data set [7] greater than 10000 nM.
As for `CCN(C(=O)Cn1cc(-c2ccccc2)c2ncn(CC)c(=O)c21)c1ccccc1`, the IC50 in the data set with Plasmodium falciparum [2] is 363 nM; in the data set with Plasmodium falciparum [3], greater than 10000 nM; in the data set with Plasmodium falciparum [4], greater than 10000 nM; with Plasmodium falciparum [5], 759 nM. Further, the IC50 at 72 h in data set [7] is greater than 10000 nM.
As to `CCc1ccc(CN2CCC[C@H](c3ncc[nH]3)C2)nc1`, the IC50 in the data set with Plasmodium falciparum [2] is 10700 nM; in the data set with Plasmodium falciparum [3], 1780 nM; in the data set on Plasmodium falciparum [4] it was 1550 nM; in the data set on Plasmodium falciparum [5] it was 1150 nM. In data set [7], this molecule came in with an IC50 at 72 h greater than 10000 nM.
As to `C[N+]1(CCCC(=O)c2ccc3c(c2)OCCO3)CCC(c2ccccc2)C1` (centres undefined), the half-maximal inhibitory concentration (IC50) in the data set on Plasmodium falciparum [2] is greater than 10000 nM; with Plasmodium falciparum [3], 2240 nM; with Plasmodium falciparum [4] it was 3800 nM; with Plasmodium falciparum [5], 2570 nM. The same molecule came in with an IC50 at 72 h in data set [7] greater than 10000 nM.
For the molecule `Cc1c(-c2ccc(F)cc2)[nH]c2ccc(CNc3nccc(N(C)C)n3)cc12`, the IC50 is 3890 nM with Plasmodium falciparum [2], 3310 nM with Plasmodium falciparum [3], 3800 nM in the data set with Plasmodium falciparum [4] and 1950 nM in the data set on Plasmodium falciparum [5]. In data set [7], this molecule registered a half-maximal inhibitory concentration (IC50) at 72 h greater than 10000 nM.
Turning to `CN1CC[C@H](CN(C)Cc2ccc3cc(O)ccc3c2)C1`, the IC50 is 4270 nM with Plasmodium falciparum [2], 3020 nM in the data set on Plasmodium falciparum [3], 832 nM in the data set on Plasmodium falciparum [4] and 1780 nM in the data set on Plasmodium falciparum [5]. The IC50 at 72 h in data set [7] was greater than 10000 nM.
`Cc1oc(-c2ccc(C(=O)N3CCN(c4ccccc4)CC3)cc2)nc1CN1CCC(C)CC1`: the IC50 in the data set on Plasmodium falciparum [2] was 2340 nM; with Plasmodium falciparum [3], greater than 10000 nM; in the data set with Plasmodium falciparum [4], 3390 nM; with Plasmodium falciparum [5], 2140 nM. This molecule returned an IC50 at 72 h in data set [7] greater than 10000 nM.
Turning to `COc1nc(-c2cccc(C(=O)NCC3CCOCC3)c2)ncc1F`, the half-maximal inhibitory concentration (IC50) in the data set with Plasmodium falciparum [2] was greater than 10000 nM; in the data set with Plasmodium falciparum [3] it was greater than 10000 nM; in the data set on Plasmodium falciparum [4], 1660 nM; in the data set on Plasmodium falciparum [5], 575 nM. The molecule also yielded an IC50 at 72 h in data set [7] greater than 10000 nM.
For `Cn1nccc1/C=C1\CC2C3CCc4cc(O)ccc4C3CCC2(C)C1O` (centres undefined), the IC50 with Plasmodium falciparum [2], in the data set with Plasmodium falciparum [3], with Plasmodium falciparum [4] and in the data set with Plasmodium falciparum [5] was greater than 10000 nM throughout. Besides, the IC50 at 72 h in data set [7] was greater than 10000 nM.
With `O=C(c1ccc2c(c1)OCO2)N1CCn2c1nc1ccccc12`, the half-maximal inhibitory concentration (IC50) in the data set on Plasmodium falciparum [2] is 513 nM; in the data set with Plasmodium falciparum [3], greater than 10000 nM; in the data set on Plasmodium falciparum [4] it was greater than 10000 nM; in the data set on Plasmodium falciparum [5] it was 1580 nM. This molecule came in with a half-inhibitory concentration (IC50) at 72 h in data set [7] greater than 10000 nM.
For `CN(C)CCN(C)c1ccc(Br)cc1NCc1cncn1C`, the IC50 in the data set on Plasmodium falciparum [2] was determined as 3720 nM; in the data set on Plasmodium falciparum [3], 2950 nM; in the data set with Plasmodium falciparum [4], 3470 nM; with Plasmodium falciparum [5], 2000 nM. In data set [7], this molecule had a concentration for half-maximal inhibition (IC50) at 72 h greater than 10000 nM.
